Assay results as given in PMC10060280, “The influence of cyclooxygenase inhibitors on kynurenic acid production in rat kidney: a novel path for kidney protection?” (Pharmacological Reports, 2023).
Counter-ions that a name gives are not always drawn. Like-named read-outs stand apart in the source and are kept apart here.

Assays:
KAT II = target: T1, KAT II (Rattus norvegicus, UniProt Q64602); experiment: KAT II activity in rat kidney in vitro; format: biochemical; settings: 2 µM L-KYN; for IC50: pH 7.0, 2 mM glutamine, read-out: IC50 of KAT II inhibition
T1 construct: kidneys were homogenized in dialysate buffer (1:9; w/v); from tissue; host or cells: rat kidney (dialyzed supernatant of homogenate)
Method: (§1) KAT I and KAT II activity in rat kidneys in vitro was analyzed based on procedures previously presented in a study by Gramsbergen et al.. […] The homogenate was centrifuged (15,133×g, 15 min) and then collected supernatant was dialyzed against 4 L of the dialysate buffer for 12 h at 8 °C with the use of cellulose membrane dialysis tubing. […] L-KYN concentration used in this analysis was equal to plasma KYN concentration, as reported by […] et al., and was sufficient to obtain appropriate enzymatic activity. The optimal pH was set at 9.5 and 7.0 for KAT I or KAT II activity analysis, respectively. Glutamine (2 mM), a KAT I inhibitor, was added to samples to measure KAT II's activity. The reaction was terminated by moving all samples into the ice-cold bath. Finally, all samples were centrifuged and analyzed by HPLC, as described in the previous section. […] To analyze KAT's activity, kidneys from 14 rats were used. Presented data are shown as mean ± standard deviation (SD). The one-way analysis of variance (one-way ANOVA) followed by Tukey's multiple comparison test was applied to analyze differences between tested COX inhibitors. The half-maximal inhibitory concentrations values (IC50) were assessed by fitting the experimental data to a four-parameter logistic equation. Statistical analyses were done with the use of GraphPad Prism 6. Values of p < 0.05 were considered to be statistically significant.

KAT I = target: T2, KAT I (Rattus norvegicus, UniProt Q08415); experiment: KAT I activity in rat kidney in vitro; format: biochemical; settings: 2 µM L-KYN; for effect on KAT I activity: 1 μM-1 mM drug; for IC50: read-out: IC50 of KAT I inhibition
T2 construct: kidneys were homogenized in dialysate buffer (1:9; w/v); from tissue; host or cells: rat kidney (dialyzed supernatant of homogenate)
T2 sequence (Q08415 1-423): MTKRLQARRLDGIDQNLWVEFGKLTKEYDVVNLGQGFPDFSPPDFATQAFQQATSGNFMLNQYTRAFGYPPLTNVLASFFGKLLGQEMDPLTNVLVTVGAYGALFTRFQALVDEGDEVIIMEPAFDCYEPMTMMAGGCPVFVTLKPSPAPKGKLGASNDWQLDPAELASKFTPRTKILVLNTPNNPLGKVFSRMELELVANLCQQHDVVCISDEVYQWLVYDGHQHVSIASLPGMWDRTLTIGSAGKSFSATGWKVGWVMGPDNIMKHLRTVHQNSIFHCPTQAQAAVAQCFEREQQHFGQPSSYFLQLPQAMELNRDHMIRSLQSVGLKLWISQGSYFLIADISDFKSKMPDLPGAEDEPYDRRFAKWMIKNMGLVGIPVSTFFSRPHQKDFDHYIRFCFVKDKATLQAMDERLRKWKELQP
Method: as §1

[1] = test system: KYNA production in rat kidney; experiment: KYNA synthesis in rat kidney homogenate in vitro; format: biochemical; settings: 10 μM L-KYN; for IC50: 2 h, 37 °C, read-out: IC50 of KYNA production inhibition
Method: In the first step, after the animals were decapitated, rat kidneys were harvested and immediately put on ice. Afterward whole kidneys were weighed and homogenized in prepared oxygenated Krebs–Ringer buffer at pH 7.4 (1:4; w/v). 100 µL of kidney homogenate was put into test tubes, pre-filled with oxygenated Krebs–Ringer buffer (containing 800 μL in every tube). […] At least six independent kidney samples were used for each experiment in this part of the study. Control samples, instead of the drug solution, contained an equal volume of a drug solvent (50 µL of DMSO or water). The reaction was stopped by adding 1 N HCl (100 μL per sample) on ice. […] Tissues from 14 animals were used in this part of the study. Presented data are shown as mean ± standard deviation (SD). The one-way analysis of variance (one-way ANOVA) followed by Tukey’s multiple comparison test was applied to analyze differences between tested COX inhibitors. The half-maximal inhibitory concentrations values (IC50) were assessed by fitting the experimental data to a four-parameter logistic equation. Statistical analyses were done with the use of GraphPad Prism 6. Values of p < 0.05 were considered to be statistically significant.

[2] = test system: KYNA content in the rat brain; settings: cited from earlier work; for KYNA content in the rat brain: after drug administration
animal models of ADPKD = settings: animal model of ADPKD, cited from earlier work
serum KYNA concentration = test system: serum KYNA concentration; design: method as in PMID 36271950; settings: 20 healthy volunteers, acute administration, 5 h after drug administration; cited from earlier work
[3] = highest concentration tested 1 mM
[4] = pH 9.5, highest concentration tested 1 mM

T1 sequence (Q64602 30-425): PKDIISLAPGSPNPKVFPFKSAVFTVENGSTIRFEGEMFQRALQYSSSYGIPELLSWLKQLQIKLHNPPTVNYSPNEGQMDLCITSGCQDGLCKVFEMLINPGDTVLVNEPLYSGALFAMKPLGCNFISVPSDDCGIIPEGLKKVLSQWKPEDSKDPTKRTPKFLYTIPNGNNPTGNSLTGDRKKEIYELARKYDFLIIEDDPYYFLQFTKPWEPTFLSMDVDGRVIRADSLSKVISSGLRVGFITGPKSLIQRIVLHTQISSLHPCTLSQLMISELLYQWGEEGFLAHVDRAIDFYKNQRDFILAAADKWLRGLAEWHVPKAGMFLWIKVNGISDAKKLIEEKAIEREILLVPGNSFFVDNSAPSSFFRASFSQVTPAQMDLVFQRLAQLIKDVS

In the case of CC(=O)Oc1ccccc1C(=O)O [acetylsalicylic acid], the IC50 (KAT II; [3]) is reported as over 1000 µM, the “effect on KAT I activity” value (KAT I) is reported as “did not affect the activity of KAT I” and the IC50 [1, 3] is reported as over 1000 µM.
In the case of O=C(O)Cc1ccccc1Nc1c(Cl)cccc1Cl [diclofenac, diclofenac sodium salt], the IC50 (KAT II; 2 h, 37 °C) is listed as 191 µM, the IC50 (KAT I; [4]) is listed as over 1000 µM and the “KYNA content in the rat brain” value [2] is listed as “elevated KYNA levels”. For the same compound, the “KYNA concentration in the rat brain” value ([2]; following tail ischemia) was “increased KYNA concentration”, the IC50 [1] was 230 µM and the “decrease of KYNA synthesis” value ([1]; concentration not given) was 64%.
In the case of Cc1ccc(-c2cc(C(F)(F)F)nn2-c2ccc(S(N)(=O)=O)cc2)cc1 [celecoxib], the cysts volume (animal models of ADPKD; selective COX-2 blockade) is listed as “decrease cysts volume”.
In the case of CC(=O)Nc1ccc(O)cc1 [acetaminophen], the “effect on KAT II activity” value (KAT II; 1 μM-1 mM drug) is reported as “not shown to inhibit KAT II activity”, the “effect on KAT I activity” value (KAT I) is reported as “did not affect the activity of KAT I” and the “effect on KYNA production” value ([1]; 1 μM-1 mM drug) is reported as “did not change KYNA production”.
For COc1ccc2cc([C@H](C)C(=O)O)ccc2c1 [naproxen, naproxen sodium], the IC50 (KAT II; 2 h, 37 °C) was 504 µM, the IC50 (KAT I; [4]) was over 1000 µM and the IC50 [1] was 464 µM.
With CS(=O)(=O)Nc1ccc([N+](=O)[O-])cc1Oc1ccccc1 [nimesulide] the IC50 (KAT II; [3]) was over 1000 µM, the IC50 (KAT I; pH 9.5, 2 h, 37 °C) was 128 µM and the IC50 [1] was 473 µM.
For Cc1cnc(NC(=O)C2=C(O)c3ccccc3S(=O)(=O)N2C)s1 [meloxicam, meloxicam sodium salt hydrate], the IC50 (KAT II; 2 h, 37 °C) is listed as 155 µM, the IC50 (KAT I; pH 9.5, 2 h, 37 °C) is listed as 310 µM and the “KYNA content in the rat brain” value [2] is listed as “Decreased KYNA content”. For the same compound, the IC50 [1, 3] was over 1000 µM.
Compound CN1C(C(=O)Nc2ccccn2)=C(O)c2ccccc2S1(=O)=O [piroxicam] has an IC50 (KAT II; [3]) of over 1000 µM and an IC50 (KAT I; [4]) of over 1000 µM.
For CC1=C(CC(=O)O)c2cc(F)ccc2/C1=C\c1ccc([S+](C)[O-])cc1 (stereo not shown) [sulindac], the cysts volume (animal models of ADPKD; nonselective COX inhibition) is listed as “decrease cysts volume”.
With CC(C)Cc1ccc(C(C)C(=O)O)cc1 (stereo not shown) [ibuprofen] the IC50 (KAT II; [3]) was over 1000 µM, the “effect on KAT I activity” value (KAT I) was “did not affect the activity of KAT I” and the IC50 [1, 3] was over 1000 µM. For the same compound, the “serum KYNA concentration” value (serum KYNA concentration) was “increases serum KYNA concentration”.
In the case of COc1ccc2c(c1)c(CC(=O)O)c(C)n2C(=O)c1ccc(Cl)cc1 [indomethacin], the IC50 (KAT II; 2 h, 37 °C) is given as 420 µM, the IC50 (KAT I; pH 9.5, 2 h, 37 °C) is given as 503 µM and the “KYNA content in the rat brain” value [2] is given as “elevated KYNA levels”. It also gave an IC50 [1] of 246 µM.
